In patent publication US20240158446A1, “CYCLIC COMPOUND HAVING SELECTIVE INHIBITORY ACTION ON KRAS OVER HRAS AND NRAS” (CHUGAI SEIYAKU KABUSHIKI KAISHA, priority 2021, published 2024):

How the values were obtained:
[1] = biological target: GDP-bound KRAS wild-type protein (Homo sapiens, UniProt P01116); test: Binding to KRAS by surface plasmon resonance (SPR), Single Cycle Kinetics; settings: SPR, Single Cycle Kinetics, 1:1 binding model; GDP-bound KRAS wild-type protein; read-out: KRAS KD
[2] = biological target: GDP-bound NRAS wild-type protein (Homo sapiens, UniProt P01111); test: Binding to NRAS by surface plasmon resonance (SPR), Single Cycle Kinetics; settings: SPR; GDP-bound NRAS wild-type protein vs GDP-bound KRAS wild-type protein; KD ratio class
Sequence of GDP-bound NRAS wild-type protein (P01111 whole entry): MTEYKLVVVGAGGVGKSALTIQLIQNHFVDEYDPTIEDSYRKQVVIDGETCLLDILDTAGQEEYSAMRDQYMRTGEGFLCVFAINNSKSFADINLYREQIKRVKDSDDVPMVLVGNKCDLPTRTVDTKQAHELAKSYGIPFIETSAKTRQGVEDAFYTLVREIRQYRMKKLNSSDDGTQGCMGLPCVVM

[3] = biological target: GDP-bound HRAS wild-type protein (Homo sapiens, UniProt P01112); test: Binding to HRAS by surface plasmon resonance (SPR), Single Cycle Kinetics; settings: SPR; GDP-bound HRAS wild-type protein vs GDP-bound KRAS wild-type protein; KD ratio class
Sequence of GDP-bound HRAS wild-type protein (P01112 whole entry): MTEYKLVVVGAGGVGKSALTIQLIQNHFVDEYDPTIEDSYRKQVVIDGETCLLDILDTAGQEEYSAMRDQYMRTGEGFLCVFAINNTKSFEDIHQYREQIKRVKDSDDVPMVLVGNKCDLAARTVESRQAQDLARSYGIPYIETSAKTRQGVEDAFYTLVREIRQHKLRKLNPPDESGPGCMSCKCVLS

[4] = system: human lung cancer strain NCI-H441;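 further: cell proliferation inhibition after four days measured by CellTiter-Glo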

Sequence of GDP-bound KRAS wild-type protein (P01116 whole entry): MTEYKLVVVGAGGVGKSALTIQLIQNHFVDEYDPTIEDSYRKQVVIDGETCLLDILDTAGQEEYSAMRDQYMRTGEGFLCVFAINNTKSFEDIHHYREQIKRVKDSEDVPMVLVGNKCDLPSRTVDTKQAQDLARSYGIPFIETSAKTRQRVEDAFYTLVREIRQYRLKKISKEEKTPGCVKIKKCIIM

Compound | Kd [1] [nM] | NRAS/KRAS (ratio of KD value for NRAS to KD value for KRAS) [2] | HRAS/KRAS (ratio of KD value for HRAS to KD value for KRAS) [3] | IC50 [4] [nM]
CCO[C@@H]1C[C@H]2C(=O)NC3(CCC3)C(=O)N(C)[C@@H](C(CC)CC)C(=O)N(C)[C@H](C(=O)N3CCCC3)CC(=O)N(C)[C@@H](C)C(=O)N[C@@H]([C@@H](C)CC)C(=O)N(C)CC(=O)N(C)[C@H]3C/C=C\CCN(C3=O)[C@@H](CC3CCC(F)(F)CC3)C(=O)N(C)CC(=O)N[C@@H](CCc3cc(F)c(C(F)(F)F)c(F)c3)C(=O)N2C1 [PP1436] | 0.29 | AA (a compound having 20 or more is denoted as AA) | A (a compound having 10 or more and less than 20 is denoted as A) | 47.4
CCO[C@@H]1C[C@H]2C(=O)NC3(CCCC3)C(=O)N(C)[C@@H](C(CC)CC)C(=O)N(C)[C@H](C(=O)N3CCCC3)CC(=O)N(C)[C@@H](C)C(=O)N[C@@H]([C@@H](C)CC)C(=O)N(C)CC(=O)N(C)[C@H]3C/C=C\CCN(C3=O)[C@@H](CC3CCC(F)(F)CC3)C(=O)N(C)CC(=O)N[C@@H](CCc3cc(F)c(C(F)(F)F)c(F)c3)C(=O)N2C1 [PP1437] | 0.61 | A (a compound having 10 or more and less than 20 is denoted as A) | A (a compound having 10 or more and less than 20 is denoted as A) | 220
CCO[C@@H]1C[C@H]2C(=O)NC3(CCC3)C(=O)N(C)[C@@H](C(CC)CC)C(=O)N(C)[C@H](C(=O)N3CCCC3)CC(=O)N(C)[C@@H](COC)C(=O)N[C@@H]([C@@H](C)CC)C(=O)N(C)CC(=O)N(C)[C@H]3C/C=C\CCN(C3=O)[C@@H](CC3CCCCC3)C(=O)N(C)CC(=O)N[C@@H](CCc3cc(F)c(C(F)(F)F)c(F)c3)C(=O)N2C1 [PP1438] | 0.55 | AA (a compound having 20 or more is denoted as AA) | A (a compound having 10 or more and less than 20 is denoted as A) | 89.4
CCO[C@@H]1C[C@H]2C(=O)NC3(CCCC3)C(=O)N(C)[C@@H](C(CC)CC)C(=O)N(C)[C@H](C(=O)N3CCCC3)CC(=O)N(C)[C@@H](COC)C(=O)N[C@@H]([C@@H](C)CC)C(=O)N(C)CC(=O)N(C)[C@H]3C/C=C\CCN(C3=O)[C@@H](CC3CCCCC3)C(=O)N(C)CC(=O)N[C@@H](CCc3cc(F)c(C(F)(F)F)c(F)c3)C(=O)N2C1 [PP1439] | 1.2 | AA (a compound having 20 or more is denoted as AA) | A (a compound having 10 or more and less than 20 is denoted as A) | 87.3
CCO[C@@H]1C[C@H]2C(=O)NC3(CCC3)C(=O)N(C)[C@@H](C(CC)CC)C(=O)N(C)[C@H](C(=O)N3CCCC3)CC(=O)N(C)[C@@H](COC)C(=O)N[C@@H]([C@@H](C)CC)C(=O)N(C)CC(=O)N(C)[C@H]3C/C=C\CCN(C3=O)[C@@H](CC3CCC(F)(F)CC3)C(=O)N(C)CC(=O)N[C@@H](CCc3cc(F)c(C(F)(F)F)c(F)c3)C(=O)N2C1 [PP1440] | 0.35 | AA (a compound having 20 or more is denoted as AA) | A (a compound having 10 or more and less than 20 is denoted as A) | 69.7
CCO[C@@H]1C[C@H]2C(=O)NC3(CCCC3)C(=O)N(C)[C@@H](C(CC)CC)C(=O)N(C)[C@H](C(=O)N3CCCC3)CC(=O)N(C)[C@@H](COC)C(=O)N[C@@H]([C@@H](C)CC)C(=O)N(C)CC(=O)N(C)[C@H]3C/C=C\CCN(C3=O)[C@@H](CC3CCC(F)(F)CC3)C(=O)N(C)CC(=O)N[C@@H](CCc3cc(F)c(C(F)(F)F)c(F)c3)C(=O)N2C1 [PP1441] | 0.7 | A (a compound having 10 or more and less than 20 is denoted as A) | A (a compound having 10 or more and less than 20 is denoted as A) | 87.6
CCO[C@@H]1C[C@H]2C(=O)NC3(CCC3)C(=O)N(C)[C@@H](C3CCCC3)C(=O)N(C)[C@H](C(=O)N3CCCC3)CC(=O)N(C)[C@@H](CC)C(=O)N[C@@H]([C@@H](C)CC)C(=O)N(C)CC(=O)N(C)[C@H]3C/C=C\CCN(C3=O)[C@@H](CC3CCCCC3)C(=O)N(C)CC(=O)N[C@@H](CCc3cc(F)c(C(F)(F)F)c(F)c3)C(=O)N2C1 [PP1443, (2S,8S,12R,14S,20S,23S,27S,30S,36S,38Z)-2-(cyclohexylmethyl)-20-cyclopentyl-8-[2-[3,5-difluoro-4-(trifluoromethyl)phenyl]ethyl]-12-ethoxy-27-ethyl-4,19,22,26,32,35-hexamethyl-30-[(1S)-1-methylpropyl]-23-(pyrrolidine-1-carbonyl)spiro[1,4,7,10,16,19,22,26,29,32,35-undecazatricyclo[34.5.1.0^10,14]dotetracont-38-ene-17,1′-cyclobutane]-3,6,9,15,18,21,25,28,31,34,42-undecone] | 0.15 | AA (a compound having 20 or more is denoted as AA) | A (a compound having 10 or more and less than 20 is denoted as A) | 34.8
CCO[C@@H]1C[C@H]2C(=O)NC3(CCC3)C(=O)N(C)[C@@H](C3CCCC3)C(=O)N(C)[C@H](C(=O)N3CCC3)CC(=O)N(C)[C@@H](CC)C(=O)N[C@@H]([C@@H](C)CC)C(=O)N(C)CC(=O)N(C)[C@H]3C/C=C\CCN(C3=O)[C@@H](CC3CCC(F)(F)CC3)C(=O)N(C)CC(=O)N[C@@H](CCc3cc(F)c(C(F)(F)F)c(F)c3)C(=O)N2C1 [PP1444] | 0.19 | A (a compound having 10 or more and less than 20 is denoted as A) | A (a compound having 10 or more and less than 20 is denoted as A) | 103
CCO[C@@H]1C[C@H]2C(=O)NC3(CCC3)C(=O)N(C)[C@@H](C3CCCC3)C(=O)N(C)[C@H](C(=O)N3CCC3)CC(=O)N(C)[C@@H](CC)C(=O)N[C@@H]([C@@H](C)CC)C(=O)N(C)CC(=O)N(C)[C@H]3C/C=C\CCN(C3=O)[C@@H](CC3CCCCC3)C(=O)N(C)CC(=O)N[C@@H](CCc3cc(F)c(C(F)(F)F)c(F)c3)C(=O)N2C1 [PP1445] | 0.27 | A (a compound having 10 or more and less than 20 is denoted as A) | A (a compound having 10 or more and less than 20 is denoted as A) | 92.8
CCO[C@@H]1C[C@H]2C(=O)NC3(CCC3)C(=O)N(C)[C@@H](C3CCCC3)C(=O)N(C)[C@H](C(=O)N(C)C)CC(=O)N(C)[C@@H](CC3CC3)C(=O)N[C@@H]([C@@H](C)CC)C(=O)N(C)CC(=O)N(C)[C@H]3C/C=C\CCN(C3=O)[C@@H](CC3CCCCC3)C(=O)N(C)CC(=O)N[C@@H](CCc3cc(F)c(C(F)(F)F)c(F)c3)C(=O)N2C1 [PP1446] | 0.2 | A (a compound having 10 or more and less than 20 is denoted as A) | A (a compound having 10 or more and less than 20 is denoted as A) | 32
CCO[C@@H]1C[C@H]2C(=O)NC3(CCC3)C(=O)N(C)[C@@H](C3CCCC3)C(=O)N(C)[C@H](C(=O)N(C)C)CC(=O)N(C)[C@@H](CC3CC3)C(=O)N[C@@H]([C@@H](C)CC)C(=O)N(C)CC(=O)N(C)[C@H]3C/C=C\CCN(C3=O)[C@@H](CC3CCC(F)(F)CC3)C(=O)N(C)CC(=O)N[C@@H](CCc3cc(F)c(C(F)(F)F)c(F)c3)C(=O)N2C1 [PP1447, (2S,8S,12R,14S,20S,23S,27S,30S,36S,38Z)-20-cyclopentyl-27-(cyclopropylmethyl)-2-[(4,4-difluorocyclohexyl)methyl]-8-[2-[3,5-difluoro-4-(trifluoromethyl)phenyl]ethyl]-12-ethoxy-N,N,4,19,22,26,32,35-octamethyl-30-[(1S)-1-methylpropyl]-3,6,9,15,18,21,25,28,31,34,42-undecaoxo-spiro[1,4,7,10,16,19,22,26,29,32,35-undecazatricyclo[34.5.1.0^10,14]dotetracont-38-ene-17,1′-cyclobutane]-23-carboxamide] | 0.12 | A (a compound having 10 or more and less than 20 is denoted as A) | A (a compound having 10 or more and less than 20 is denoted as A) | 28.9
CC[C@H](C)[C@@H]1NC(=O)[C@H](CC)N(C)C(=O)C[C@@H](C(=O)N(C)C)N(C)C(=O)[C@H](C2CCCC2)N(C)C(=O)C2(CCC2)NC(=O)[C@@H]2CC(F)(F)CN2C(=O)[C@H](CCc2cc(F)c(C(F)(F)F)c(F)c2)NC(=O)CN(C)C(=O)[C@H](CC2CCC(F)(F)CC2)N2CC/C=C\C[C@@H](C2=O)N(C)C(=O)CN(C)C1=O [PP1448, (2S,8S,14S,20S,23S,27S,30S,36S,38Z)-20-cyclopentyl-2-[(4,4-difluorocyclohexyl)methyl]-8-[2-[3,5-difluoro-4-(trifluoromethyl)phenyl]ethyl]-27-ethyl-12,12-difluoro-N,N,4,19,22,26,32,35-octamethyl-30-[(1S)-1-methylpropyl]-3,6,9,15,18,21,25,28,31,34,42-undecaoxo-spiro[1,4,7,10,16,19,22,26,29,32,35-undecazatricyclo[34.5.1.0^10,14]dotetracont-38-ene-17,1′-cyclobutane]-23-carboxamide] | 0.059 | A (a compound having 10 or more and less than 20 is denoted as A) | A (a compound having 10 or more and less than 20 is denoted as A) | 8.3
